# Experimental data reported in patent US20240158446A1, “CYCLIC COMPOUND HAVING SELECTIVE INHIBITORY ACTION ON KRAS OVER HRAS AND NRAS” (CHUGAI SEIYAKU KABUSHIKI KAISHA, priority 2021, published 2024).
# *1 amine or outer side, *2 acyl side, *3 side chain or, on linkers, in order; H or OH if unused. Where a SMILES comes first, the peptide text is derived from it. Bridges are numbered along the chain shown (N, C = ends). [ ]: non-standard residue; d: D form. The star is where a group is joined. hPhe(3-Cl-4-CF3) = N[C@@H](CCc1ccc(C(F)(F)F)c(Cl)c1)C(=O)O; NPrPhe(4-CF3) = CCCN[C@@H](Cc1ccc(C(F)(F)F)cc1)C(=O)O; X2 = CCCN([C@@H](COC1CCC1)C(=O)[*:2])[*:1]; NMeGly(cPent) = CN[C@H](C(=O)O)C1CCCC1; Ac4c(3,3-Me2) = CC1(C)CC(N)(C(=O)O)C1; NMeD = CN[C@@H](CC(=O)O)C(=O)O; NMeL = CN[C@@H](CC(C)C)C(=O)O; Morpholide = C1CN(*)CCO1; NMeA = CN[C@@H](C)C(=O)O; Aze = O=C(O)[C@@H]1CCN1; Ac4c = NC1(C(=O)O)CCC1; Sar = CNCC(=O)O; Propyl = CCC*
# How the values were obtained:
# [1] = target: GDP-bound KRAS wild-type protein (Homo sapiens, UniProt P01116); test: Binding to KRAS by surface plasmon resonance (SPR), Single Cycle Kinetics; settings: SPR, Single Cycle Kinetics, GDP-bound KRAS wild-type protein; read-out: KRAS KD
# [2] = target: GDP-bound NRAS wild-type protein (Homo sapiens, UniProt P01111); test: Binding to NRAS by surface plasmon resonance (SPR), Single Cycle Kinetics; settings: ratio of KD for GDP-bound NRAS wild-type protein to KD for KRAS, SPR
# [3] = target: GDP-bound HRAS wild-type protein (Homo sapiens, UniProt P01112); test: Binding to HRAS by surface plasmon resonance (SPR), Single Cycle Kinetics; settings: ratio of KD for GDP-bound HRAS wild-type protein to KD for KRAS, SPR
# [4] = tested on: human lung cancer strain NCI-H441; test: cells; settings: NCI-H441, 96 h, read-out: NCI-H441 IC50 (nM), NCI-H441 cell proliferation, 4 days, CellTiter-Glo;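 further: cell proliferation inhibition after four days measured by CellTiter-Glo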
# Sequence of GDP-bound HRAS wild-type protein (P01112 whole entry): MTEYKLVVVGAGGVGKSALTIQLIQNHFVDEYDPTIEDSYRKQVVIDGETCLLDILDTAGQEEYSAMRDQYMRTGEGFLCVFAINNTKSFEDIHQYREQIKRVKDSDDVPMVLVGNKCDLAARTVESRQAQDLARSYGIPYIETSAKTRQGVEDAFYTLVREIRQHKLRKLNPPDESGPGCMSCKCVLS
# Sequence of GDP-bound NRAS wild-type protein (P01111 whole entry): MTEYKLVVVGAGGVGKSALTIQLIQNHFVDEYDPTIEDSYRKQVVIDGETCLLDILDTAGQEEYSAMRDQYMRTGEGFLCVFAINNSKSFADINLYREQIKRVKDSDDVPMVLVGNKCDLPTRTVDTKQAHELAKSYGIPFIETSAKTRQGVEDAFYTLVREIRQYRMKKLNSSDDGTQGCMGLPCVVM
# Sequence of GDP-bound KRAS wild-type protein (P01116 whole entry): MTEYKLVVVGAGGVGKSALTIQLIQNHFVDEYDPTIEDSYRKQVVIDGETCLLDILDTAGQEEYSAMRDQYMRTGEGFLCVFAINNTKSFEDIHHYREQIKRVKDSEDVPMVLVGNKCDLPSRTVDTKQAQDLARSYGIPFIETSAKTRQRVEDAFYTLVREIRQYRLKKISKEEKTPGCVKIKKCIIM
SMILES,Kd [1],NRAS/KRAS (KD ratio) [2],HRAS/KRAS (KD ratio) [3],IC50 [4]
CC[C@H](C)[C@@H]1NC(=O)[C@H](CC(C)C)N(C)C(=O)C[C@@H](C(=O)N(C)C)N(C)C(=O)[C@H](C2CCCC2)N(C)C(=O)C2(CC(C)(C)C2)NC(=O)[C@@H]2C[C@@H](C)CN2C(=O)[C@H](CCc2ccc(C(F)(F)F)c(OC)c2)NC(=O)CN(C)C(=O)[C@H](Cc2ccc(C)cc2)N2CC/C=C\C[C@@H](C2=O)N(C)C(=O)CN(C)C1=O [PP1908],0.11 nM,A (a compound having 10 or more and less than 20 is denoted as A),B (a compound having 3 or more and less than 10 is denoted as B),10.1 nM
CC[C@H](C)[C@@H]1NC(=O)[C@H](CC(C)C)N(C)C(=O)C[C@@H](C(=O)N(C)CC)N(C)C(=O)[C@H](C2CCCC2)N(C)C(=O)C2(CCC2)NC(=O)[C@@H]2C[C@H](C)CN2C(=O)[C@H](CCc2ccc(C(F)(F)F)c(OC)c2)NC(=O)CN(C)C(=O)[C@H](Cc2ccc(C)cc2)N2CC/C=C\C[C@@H](C2=O)N(C)C(=O)CN(C)C1=O [PP1904],0.12 nM,A (a compound having 10 or more and less than 20 is denoted as A),B (a compound having 3 or more and less than 10 is denoted as B),18.3 nM
CCC[C@H]1C(=O)N[C@@H]([C@@H](C)CC)C(=O)N(C)CC(=O)N(C)[C@H]2C/C=C\CCN(C2=O)[C@@H](Cc2ccc(C)cc2)C(=O)N(C)CC(=O)N[C@@H](CCc2ccc(C(F)(F)F)c(OC)c2)C(=O)N2C[C@H](OCC)C[C@H]2C(=O)NC2(CC(C)(C)C2)C(=O)N(C)[C@@H](C2CCCC2)C(=O)N(C)[C@H](C(=O)N(C)C)CC(=O)N1C [PP1892],0.074 nM,A (a compound having 10 or more and less than 20 is denoted as A),B (a compound having 3 or more and less than 10 is denoted as B),4.8 nM
CC[C@H](C)[C@@H]1NC(=O)[C@H](CC)N(C)C(=O)C[C@@H](C(=O)N(C)C)N(C)C(=O)[C@H](C2CCCC2)N(C)C(=O)C2(CC(C)(C)C2)NC(=O)[C@@H]2C[C@H](C)CN2C(=O)[C@H](CCc2ccc(C(F)(F)F)c(OC)c2)NC(=O)CN(C)C(=O)[C@H](Cc2ccc(C)cc2)N2CC/C=C\C[C@@H](C2=O)N(C)C(=O)CN(C)C1=O [PP1836],0.1 nM,A (a compound having 10 or more and less than 20 is denoted as A),B (a compound having 3 or more and less than 10 is denoted as B),10.7 nM
CC[C@H](C)[C@@H]1NC(=O)[C@H](CC(C)C)N(C)C(=O)C[C@@H](C(=O)N(CC)CC)N(C)C(=O)[C@H](C2CCCC2)N(C)C(=O)C2(CCC2)NC(=O)[C@@H]2C[C@H](C)CN2C(=O)[C@H](CCc2ccc(C(F)(F)F)c(OC)c2)NC(=O)CN(C)C(=O)[C@H](Cc2ccc(C)cc2)N2CC/C=C\C[C@@H](C2=O)N(C)C(=O)CN(C)C1=O [PP1885],0.23 nM,AA (a compound having 20 or more is denoted as AA),A (a compound having 10 or more and less than 20 is denoted as A),18.3 nM
CCO[C@@H]1C[C@H]2C(=O)NC3(CC(F)(F)C3)C(=O)N(C)[C@@H](C3CCCC3)C(=O)N3CCC[C@@H]3CC(=O)N(C)[C@@H](CC)C(=O)N[C@@H]([C@@H](C)CC)C(=O)N(C)CC(=O)N(C)[C@H]3C/C=C\CCN(C3=O)[C@@H](Cc3ccc(C(F)(F)F)cc3)C(=O)N(C)CC(=O)N[C@@H](CCc3cc(F)c(C(F)(F)F)c(F)c3)C(=O)N2C1 [PP1609],0.2 nM,A (a compound having 10 or more and less than 20 is denoted as A),A (a compound having 10 or more and less than 20 is denoted as A),37 nM
CCO[C@@H]1C[C@H]2C(=O)NC3(CC(C)(C)C3)C(=O)N(C)[C@@H](C3CCCC3)C(=O)N(C)[C@H](C(=O)N(C)CC)CC(=O)N(C)[C@@H](C(C)C)C(=O)N[C@@H]([C@@H](C)CC)C(=O)N(C)CC(=O)N(C)[C@H]3C/C=C\CCN(C3=O)[C@@H](Cc3ccc(C(F)(F)F)cc3)C(=O)N(C)CC(=O)N[C@@H](CCc3ccc(C(F)(F)F)c(OC)c3)C(=O)N2C1 [PP1977],0.15 nM,AA (a compound having 20 or more is denoted as AA),A (a compound having 10 or more and less than 20 is denoted as A),20.2 nM
CC[C@H](C)[C@@H]1NC(=O)[C@H](CC)N(C)C(=O)C[C@@H](C(=O)N(C)C)N(C)C(=O)[C@H](C2CCCC2)N(C)C(=O)C2(CCCC2)N(C)C(=O)[C@@H]2CCCN2C(=O)[C@H](CCc2cc(F)c(C(F)(F)F)c(F)c2)NC(=O)CN(C)C(=O)[C@H](Cc2ccc(C)cc2)N2CC/C=C\C[C@@H](C2=O)N(C)C(=O)CN(C)C1=O [PP1807],0.062 nM,A (a compound having 10 or more and less than 20 is denoted as A),B (a compound having 3 or more and less than 10 is denoted as B),5 nM
CCCN(C)C(=O)[C@@H]1CC(=O)N(C)[C@@H](CC)C(=O)N[C@@H]([C@@H](C)CC)C(=O)N(C)CC(=O)N(C)[C@H]2C/C=C\CCN(C2=O)[C@@H](Cc2ccc(C(F)(F)F)cc2)C(=O)N(C)CC(=O)N[C@@H](CCc2cc(F)c(C(F)(F)F)c(F)c2)C(=O)N2C[C@H](OCC)C[C@H]2C(=O)NC2(CC(C)(C)C2)C(=O)N(C)[C@@H](C2CCCC2)C(=O)N1C [PP1670],0.1 nM,A (a compound having 10 or more and less than 20 is denoted as A),A (a compound having 10 or more and less than 20 is denoted as A),6.7 nM
CCO[C@@H]1C[C@H]2C(=O)NC3(CC(C)(C)C3)C(=O)N(C)[C@@H](C3CCCC3)C(=O)N(C)[C@H](C(=O)N(C)C)CC(=O)N(C)[C@@H](CC)C(=O)N[C@@H]([C@@H](C)CC)C(=O)N(C)CC(=O)N(C)[C@H]3C/C=C\CCN(C3=O)[C@@H](Cc3ccc(C)cc3)C(=O)N(C)CC(=O)N[C@@H](CCc3ccc(C(F)(F)F)c(Cl)c3)C(=O)N2C1 [PP1878],0.063 nM,A (a compound having 10 or more and less than 20 is denoted as A),A (a compound having 10 or more and less than 20 is denoted as A),8.8 nM
CCO[C@@H]1C[C@H]2C(=O)NC3(CC(F)(F)C3)C(=O)N(C)[C@@H](C3CCCC3)C(=O)N(C)[C@H](C(=O)N(C)CC)CC(=O)N(C)[C@@H](CC3CC3)C(=O)N[C@@H]([C@@H](C)CC)C(=O)N(C)CC(=O)N(C)[C@H]3C/C=C\CCN(C3=O)[C@@H](Cc3ccc(C(F)(F)F)cc3)C(=O)N(C)CC(=O)N[C@@H](CCc3cc(F)c(C(F)(F)F)c(F)c3)C(=O)N2C1 [PP1738],0.071 nM,AA (a compound having 20 or more is denoted as AA),A (a compound having 10 or more and less than 20 is denoted as A),5.1 nM
CCO[C@@H]1C[C@H]2C(=O)NC3(CC(C)(C)C3)C(=O)N(C)[C@@H](C3CCCC3)C(=O)N3CCC[C@@H]3CC(=O)N(C)[C@@H](CC)C(=O)N[C@@H]([C@@H](C)CC)C(=O)N(C)CC(=O)N(C)[C@H]3C/C=C\CCN(C3=O)[C@@H](CC3CCCCC3)C(=O)N(C)CC(=O)N[C@@H](CCc3cc(F)c(C(F)(F)F)c(F)c3)C(=O)N2C1 [PP1620],6.4 nM,B (a compound having 3 or more and less than 10 is denoted as B),B (a compound having 3 or more and less than 10 is denoted as B),170 nM
CCCN1C(=O)[C@@H]2CCN2C(=O)[C@H](C)N(C)C(=O)[C@H]([C@@H](C)CC)NC(=O)[C@H](CC(C)C)N(C)C(=O)C[C@@H](C(=O)N2CCOCC2)N(C)C(=O)[C@H](C2CCCC2)N(C)C(=O)C2(CCC2)NC(=O)[C@@H]2CCCN2C(=O)[C@H](CCc2ccc(C(F)(F)F)c(Cl)c2)NC(=O)CN(C)C(=O)[C@@H]1COC1CCC1 [PP1818] ([NMeL]I[NMeA][Aze][X2][Sar][hPhe(3-Cl-4-CF3)]P[Ac4c][NMeGly(cPent)][NMeD]-Morpholide; lactam N-11),0.9 nM,C (A compound having a KD ratio of 0.1 or more and less than 3 is denoted as C),B (a compound having 3 or more and less than 10 is denoted as B),74.8 nM
"CCCO[C@H](C)[C@@H]1NC(=O)[C@H](CC(C)C)N(C)C(=O)C[C@@H](C(=O)N2CCOCC2)N(C)C(=O)[C@H](C2CCCC2)N(C)C(=O)C2(CC(C)(C)C2)NC(=O)[C@@H]2CCCN2C(=O)[C@H](CCc2ccc(C(F)(F)F)c(Cl)c2)NC(=O)CN(C)C(=O)[C@H](Cc2ccc(C(F)(F)F)cc2)N(CCC)C(=O)CN(C)C(=O)CN(C)C1=O [PP1965] ([NMeL]T(Propyl)[Sar][Sar][NPrPhe(4-CF3)][Sar][hPhe(3-Cl-4-CF3)]P[Ac4c(3,3-Me2)][NMeGly(cPent)][NMeD]-Morpholide; lactam N-11)",0.3 nM,B (a compound having 3 or more and less than 10 is denoted as B),B (a compound having 3 or more and less than 10 is denoted as B),17.4 nM
